SMILES strings stand for the structures.

This passage reports IC50 results from patent US20240025891A1 (Celgene Corporation, priority 2020, published 2024).

In this assay the test system is Onchocerca gutturosa adult male worms. Put plainly: Onchocerciasis in vitro screening model Onchocerca gutturosa (worm motility score and MTT/formazan colorimetry). The following applies: Onchocerca gutturosa, read-out: O. gutt Act class.

Description: Onchocerciasis: In Vitro Screening Model Onchocerca gutturosa
Parasite and cell cultures. Onchocerca gutturosa adult male worms were obtained by dissection from the nuchal ligament connective tissues of naturally infected cattle, from Gambia, W Africa.
The worms were maintained for at least 24 h in culture before use in Eagles Minimum Essential Medium with Earl's Salts (Gibco, UK)+10% heat inactivated new born calf serum (Gibco, UK)+antibiotic cover of 200 units/ml penicillin, 200 μg/ml streptomycin and 0.5 μg/ml amphotericin B (Sigma, UK). Only normally active specimens were used in the test. All cultures and assays were conducted at 37° C. under an atmosphere of 5% CO2 in air.
Drug sensitivity assays. Compound stock solutions were prepared in 100% DMSO unless otherwise indicated and diluted into the medium. Any unused compound stocks were stored at −20° C. Assays were performed in sterile 24-well (2 ml) plates (Falcon, UK).
Worms were then transferred individually to each well of the plate using fine forceps. Worm viability was assessed using 2 parameters: • The measurement of mean worm motility scores on a scale of 0 (immotile) to 10 (maximum) every 24 h, terminating at 120 h, using an Olympus inverted microscope. • The biochemical evaluation of worm viability using MTT/formazan colorimetry. The MTT assay was carried out after the last motility reading (120 h). Single intact worms were placed in each well of a 48-well plate (Falcon, UK) containing 0.5 ml of a solution consisting of 0.5 mg/ml MTT (Sigma UK) in phosphate buffered saline, and then incubated for 30 min at 37° C. The worms were removed, blotted carefully, and individually transferred to separate wells of a 96-well microtiter plate, each containing 200 μl of DMSO to solubilize the formazan. After 1 h the plate was gently agitated to disperse the color evenly and the absorbance value (optical density) of the resulting formazan solution was determined at 490 nm using a multi-well scanning spectrophotometer (Elisa-reader, Dynatech, UK). Inhibition of formazan formation was correlated with worm damage or death.
Primary screen. New compounds were usually tested at 1.25×10^−5 M. Also expressed in μg/ml.
Secondary screen. […] Serial 1 in 4 drug dilutions was carried out to find activity endpoint and EC50 values for motility reduction and inhibition of formazan formation were produced. EC50 values were determined using Excel or Origin V7 scientific graphing and data analysis software.

For the compound `O=C(c1sc(Nc2cc(C(F)(F)F)ccn2)nc1-c1ccccn1)N1CCOCC1` [Example 199, morpholino(4-(pyridin-2-yl)-2-(4-(trifluoromethyl)pyridin-2-ylamino)thiazol-5-yl)methanone], the IC50 is 500 to 5000 nM.
The result for `c1ccc(-c2csc(Nc3cc(-c4cccc5ccccc45)ccn3)n2)nc1` [Example 175, N-(4-(naphthalen-1-yl)pyridin-2-yl)-4-(pyridin-2-yl)thiazol-2-amine] reads < 200 nM; that for `O=C(NCC1CC1)c1ccnc(Nc2nc(-c3ccccn3)cs2)c1` [Example 177, N-(cyclopropyl-methyl)-2-(4-(pyridin-2-yl)thiazol-2-ylamino) isonicotinamide], 500 to 5000 nM.
As for `CCOc1cnc(-c2csc(Nc3cc(C)ccn3)n2)c(C)c1` [Example 74, 4-(5-ethoxy-3-methylpyridin-2-yl)-N-(4-methylpyridin-2-yl)thiazol-2-amine], the IC50 was < 200 nM.
With `Cc1ccnc(Nc2nc(-c3ncccc3C#N)cs2)c1` [Example 92, 2-(2-(4-methylpyridin-2-ylamino)thiazol-4-yl)nicotinonitrile] the figure was < 200 nM.
The result for `CC(C)NC(=O)c1ccnc(Nc2nc(-c3ccccn3)cs2)c1` [Example 146, N-isopropyl-2-(4-(pyridin-2-yl)thiazol-2-ylamino) isonicotinamide] reads < 200 nM; that for `CCc1cnc(Nc2nc(-c3ccccn3)cs2)cc1C(F)(F)F` [Example 130, N-(5-ethyl-4-(trifluoro-methyl)pyridin-2-yl)-4-(pyridin-2-yl)thiazol-2-amine], < 200 nM; that for `Cc1sc(Nc2cc(OC3CCOCC3)ccn2)nc1-c1ccccn1` [Example 205, 5-methyl-4-(pyridin-2-yl)-N-(4-(tetrahydro-2H-pyran-4-yloxy)pyridin-2-yl)thiazol-2-amine], < 200 nM.
In the case of `CC(C)Oc1ccc(-c2cnc(Nc3ncccc3N(C)C)o2)nc1` [Example 231, N2-(5-(5-isopropoxy-pyridin-2-yl)oxazol-2-yl)-N3,N3-dimethyl-pyridine-2,3-diamine], the IC50 was in the range of 500 to 5000 nM.
With `O=C(c1ccnc(Nc2nc(-c3ccccn3)cs2)c1)N1CCNCC1` [Example 144, piperazin-1-yl(2-(4-(pyridin-2-yl)thiazol-2-ylamino)pyridin-4-yl)methanone], the IC50 fell in the range of 200 to 500 nM.
With `Cc1ccnc(Nc2cc(-c3ncccc3C)nn2-c2ccccc2)c1` [Example 235, 4-methyl-N-(3-(3-methylpyridin-2-yl)-1-phenyl-1H-pyrazol-5-yl)pyridin-2-amine] the figure was 500 to 5000 nM; with `CN(C)Cc1sc(Nc2cc(C(F)(F)F)ccn2)nc1-c1ccccn1` [Example 195, 5-((dimethylamino)methyl)-4-(pyridin-2-yl) N-(4-(trifluoromethyl)pyridin-2-yl)thiazol-2-amine], 200 to 500 nM.
With `O=C(c1ccnc(Nc2nc(-c3ccccn3)cs2)c1)N1CCC(F)(F)CC1` [Example 145, (4,4-difluoro-piperidin-1-yl)(2-(4-(pyridin-2-yl)thiazol-2-ylamino)pyridin-4-yl)methanone] the figure was < 200 nM.
`CCOc1ccc(-c2csc(Nc3ncccc3C3CC3)n2)nc1` [Example 83, N-(3-cyclopropylpyridin-2-yl)-4-(5-ethoxypyridin-2-yl)thiazol-2-amine]: the IC50 was 200 to 500 nM.
The result for `O=C(c1sc(Nc2cc(C(F)(F)F)ccn2)nc1-c1ccccn1)N1CCCC1` [Example 207, (4-(pyridin-2-yl)-2-(4-(trifluoromethyl)pyridin-2-ylamino)thiazol-5-yl)(pyrrolidin-1-yl)methanone] reads < 200 nM; that for `COc1ccnc(-c2csc(Nc3ncc(C(F)(F)F)cc3N(C)C(C)=O)n2)c1` [Example 96, N-(2-(4-(4-methoxypyridin-2-yl)thiazol-2-ylamino)-5-(trifluoromethyl)pyridin-3-yl)-N-methylacetamide], 200 to 500 nM.
The result for `Cc1sc(Nc2cc(C(F)(F)F)c(C(C)C)cn2)nc1-c1ccccn1` [Example 186, N-(5-isopropyl-4-(trifluoromethyl)pyridin-2-yl)-5-methyl-4-(pyridin-2-yl)thiazol-2-amine] reads < 200 nM; that for `CN(C)C(=O)c1sc(Nc2cc(C(F)(F)F)ccn2)nc1-c1ccccn1` [Example 209, N,N-dimethyl-4-(pyridin-2-yl)-2-(4-(trifluoromethyl)pyridin-2-ylamino) thiazole-5-carboxamide], < 200 nM.
